17 compounds from patent publication US11311512B2, “Lymph directing prodrugs” (priority 2014, dated 2022) can be followed below.

Several values for one entry are separate records, joined by “and”; a condition that tells them apart may be missing. Equal values may be shown once. Read-outs that look alike come from different tables or passages of the source.

The procedure of data set [1]: Lipid formulations containing the compound of interest were then administered to the animals, the lymph collected and drug concentrations in the lymph subsequently quantified.
Lipid-based formulations of the compounds of the invention or control compounds were prepared as previously described (Trevaskis, N. L. et al., Pharmaceutical Research, 2005, 22(11), 1863-1870). Briefly, approximately 2 mg of the compound (1 mg in the case of Compound 35 and Compound 1), 40 mg oleic acid and 25 mg Tween 80 were mixed in a glass vial until equilibrated (gentle heat (below 50° C.) may be applied for a short period).
[…] This was to eliminate the potential for the relatively high and variable levels of endogenous testosterone in male rats interfering with the quantification of exogenously dosed testosterone. Rats (240-320 g) were maintained on a standard diet and fasted overnight with free access to water prior to experiments. Anaesthetised rats were placed on a heated pad at 37° C. and cannulas were inserted into the duodenum (for formulation administration and rehydration), mesenteric lymph duct (for lymph collection) and carotid artery (for blood collection) as previously described (Edwards et al. Advanced Drug Delivery Reviews 2001, 50(1), 45-60). Post-surgery, rats were re-hydrated for 0.5 h via intraduodenal infusion of normal saline at 2.8 mL/h. The lipid formulations were infused into the duodenum at 2.8 mL/h for 2 h, after which the infusion was changed to 2.8 mL/h normal saline for the remainder of the experiment. Lymph was continuously collected for 6 to 8 h into pre-weighed Eppendorf tubes containing 10 μL of 1,000 IU/mL heparin. The collection tubes were changed hourly and lymph flow was measured gravimetrically. Aliquots of hourly lymph samples were stored at −80° C. prior to assay.
Drug concentration in lymph is expressed as total drug and includes free drug and drug associated with different glycerides. This is assayed by hydrolysis of lymph (to liberate drug from any re-esterified glycerides) prior to assessment of free drug.
FIG. 1 illustrates the cumulative lymphatic transport of total testosterone related derivatives (% of administered dose) versus time in anaesthetised mesenteric lymph duct cannulated female SD rats following intraduodenal infusion of formulations from 0 to 2 h. Each Formulation contained 2 mg of the exemplified compound or the control, testosterone undecanoate (TU), dispersed in 40 mg oleic acid, 25 mg Tween 80 and 5.6 ml PBS.

Data set [2] can be described thus: Pharmacokinetic study in rats, testosterone plasma concentrations after oral gavage. To be noted: testosterone in plasma, oral gavage; for Tmax / AUC0-24 h / Cmax: conscious carotid artery cannulated SD female rats; for AUC0-24 h / Cmax: normalized to 2 mg/kg equivalent testosterone dose. As to the method:
In order to assess the oral bioavailability of the compounds of the invention, pharmacokinetic studies were conducted in rats and dogs. […] The rats were then allowed to regain consciousness and fasted overnight prior to the commencement of experiments with free access to water. […] The oral formulation of Compound 2 contained 3 mg of the compound, 20 mg oleic acid and 12.5 mg Tween 80 dispersed in 1 mL PBS. Blood samples were collected from the carotid artery cannula from 5 min prior to administration up to 24 h post-dosing and centrifuged at 5000 rpm for 5 min to separate plasma. […] Plasma samples were stored at −80° C. prior to assay by HPLC-MS-MS. In this case samples were assayed for free drug (i.e. non-glyceride associated drug) and were not hydrolysed prior to assay (as was the case with the lymph samples).
FIG. 12 illustrates dose-normalized testosterone plasma concentrations following oral gavage of formulations to conscious, carotid artery cannulated female SD rats. Formulations contained 1 mg of TU, or 2 mg of compounds of the invention containing testosterone dispersed in 40 mg oleic acid, 25 mg Tween 80 and 2 ml PBS. Doses are normalized to a 2 mg/kg equivalent dose of testosterone. Data are shown as mean±SEM for all groups (n=4 or 3 for each group). The embedded figure is the plot of the dose-normalized plasma AUC0-24h (nmol×h/L) of testosterone in the form of a bar graph.

Setting [3] is: anaesthetised, mesenteric lymph-duct cannulated male SD rats, intraduodenal infusion, MET, ATV, ASP, SER or CEL derivatives.
The mark [4] stands for this setting: anaesthetised, mesenteric lymph-duct cannulated male SD rats, intraduodenal infusion 0-2 h, cumulative over 8 h.
Where [5] appears, read: lymphatic transport of total MPA derivatives, male SD rats, intraduodenal infusion.
[6] abbreviates: male, Sprague-Dawley, rat, in vivo.

For “1-(1,3-Bis(palmitoyloxy)propan-2-yl) 10-(1-(isopropylamino)-3-(4-(2-methoxyethyl)phen-oxy)propan-2-yl) decanedioate [Compound 3]”, in data set [1] (setting [3]), the “Transport of total drug derivatives in lymph (% of dose)” value was 14.2 ± 1.5 % of dose. The “Increase fold (compared with parent drug group)” value (from here on “Increase fold”) in data set [1] (lymphatic transport of total drug derivatives, male SD rats, intraduodenal infusion) stood at 591.7 fold.

In the case of `CCCCCCCCCCCCCCCC(=O)OCC(COC(=O)CCCCCCCCCCCCCCC)OC(=O)C(C)CCCOC(=O)CCC(C)=CCc1c(O)c2c(c(C)c1OC)COC2=O` (mixture of isomers) [Compound 36], in data set [1] (setting [4]), the “Transport of total MPA derivatives in lymph (% of dose)” value was 9.1 % of dose and 9.1 ± 1.4 % of dose. In addition, the “Fold increase (compared with MPA dosed group)” value in data set [1] (setting [5]) was 54.6 fold.

For the compound `CCCCCCCCCCCCCCCC(=O)OCC(COC(=O)CCCCCCCCCCCCCCC)OC(=O)C(C)CCCCOC(=O)CCC(C)=CCc1c(O)c2c(c(C)c1OC)COC2=O` (mixture of isomers) [Compound 37], in data set [1] (setting [4]), the “Transport of total MPA derivatives in lymph (% of dose)” value is 12.6 % of dose and 12.6 ± 1.7 % of dose. Moreover, the “Fold increase (compared with MPA dosed group)” value in data set [1] (setting [5]) is listed as 75.0 fold.

With `CCCCCCCCCCCCCCCC(=O)OCC(COC(=O)CCCCCCCCCCCCCCC)OC(=O)CC(C)CCOC(=O)CCC(C)=CCc1c(O)c2c(c(C)c1OC)COC2=O` (mixture of isomers) [Compound 38], the “Transport of total MPA derivatives in lymph (% of dose)” value in data set [1] (setting [4]) is 12.1 % of dose and 12.1 ± 1.0 % of dose. In addition, in data set [1] (setting [5]), the “Fold increase (compared with MPA dosed group)” value is recorded as 72.3 fold.

Turning to `CCCCCCCCCCCCCCCC(=O)OCC(COC(=O)CCCCCCCCCCCCCCC)OC(=O)CC(C)CCCCCCCCCCCCOC(=O)CCC(C)=CCc1c(O)c2c(c(C)c1OC)COC2=O` (mixture of isomers) [Compound 39], the “Transport of total MPA derivatives in lymph (% of dose)” value in data set [1] (setting [4]) was 28.4 % of dose and 28.4 ± 3.2 % of dose. Moreover, the “Fold increase (compared with MPA dosed group)” value in data set [1] (setting [5]) is recorded as 167.0 fold.

Regarding `CC(=O)Oc1ccccc1C(=O)O` [ASP, aspirin, reference compound], in data set [1] (setting [6]), the “Increase fold” value worked out at 1.0 fold and the “Transport of total drug derivatives in lymph (% of dose)” value was 1.3 ± 0.2 % of dose.

Regarding `CCCCCCCCCCCCCCCC(=O)OCC(COC(=O)CCCCCCCCCCCCCCC)OC(=O)CCCCCCCCC(=O)Oc1cc(C)cc(C)c1C(C)(C)CC(=O)NS(=O)(=O)c1ccc(-n2nc(C(F)(F)F)cc2-c2ccc(C)cc2)cc1` [Compound 5], the “Transport of total drug derivatives in lymph (% of dose)” value in data set [1] (setting [3]) is given as 15.7 ± 1.3 % of dose.

Broadly, the Tmax is the time at which the peak concentration occurs. By Cmax is commonly meant the peak of the concentration-time curve. As for `CCCCCCCCCCCCCCCC(=O)OCC(COC(=O)CCCCCCCCCCCCCCC)OC(=O)CCCC(=O)O[C@H]1CC[C@H]2[C@@H]3CCC4=CC(=O)CC[C@]4(C)[C@H]3CC[C@]12C` [Compound 10], the “Transport of total TST derivatives in lymph (% of dose)” value in data set [1] (anaesthetised, mesenteric lymph-duct cannulated female SD rats, intraduodenal infusion 0-2 h, cumulative over 8 h) is 14.5 % of dose. Further, in data set [1] (lymphatic transport of total TST derivatives, female SD rats, intraduodenal infusion), the “Fold increase (compared with control group dosed with TU)” value is reported as 7.7 fold. The “AUC0-24 h fold increase compared with TU group” value in data set [2] (SD female rats, dose-normalized) was 2.8 fold and 2.9 fold. Moreover, in data set [2], the Tmax was 1.0 ± 0.0 h and 1.1 ± 0.1 h; the AUC0-24 h was 0.0191 ± 0.0024 µM·h and 0.0196 ± 0.0008 µM·h; the Cmax was 19 nM and 13.7 nM.

As to `CCCCCCCCCCCCCCCC(=O)OCC(COC(=O)CCCCCCCCCCCCCCC)OC(=O)CCCCC(=O)Oc1cc(C)cc(C)c1C(C)(C)CC(=O)O[C@H]1CC[C@H]2[C@@H]3CCC4=CC(=O)CC[C@]4(C)[C@H]3CC[C@]12C` [Compound 22, 1,3-Bis(palmitoyloxy)propan-2-yl (2-(4-(((8R,9S,10R,13S,14S,17S)-10,13-dimethyl-3-oxo-2,3,6,7,8,9,10,11,12,13-14,15,16,17-tetradecahydro-1H-cyclopenta[a]phenanthren-17-yl)oxy)-2-methyl-4-oxobutan-2-yl)-3,5-dimethylphenyl) adipate], in data set [2], the Tmax worked out at 1.0 ± 0.0 h, the AUC0-24 h was 0.2691 ± 0.0588 µM·h and the Cmax was found to be 171 ± 27 nM.

Take `CCCCCCCCCCCCCCCC(=O)OCC(COC(=O)CCCCCCCCCCCCCCC)OC(=O)CCCCCCCCC(=O)Oc1cc(C)cc(C)c1C(C)(C)CC(=O)O[C@H]1CC[C@H]2[C@@H]3CCC4=CC(=O)CC[C@]4(C)[C@H]3CC[C@]12C` [Compound 26]: in data set [2], the Tmax is listed as 1.1 ± 0.1 h, the AUC0-24 h came to 0.6173 ± 0.1778 µM·h and the Cmax is 487 ± 134 nM.

`CCCCCCCCCCCCCCCC(=O)OCC(COC(=O)CCCCCCCCCCCCCCC)OC(=O)CCCCCCCOC(=O)CC/C(C)=C/Cc1c(O)c2c(c(C)c1OC)COC2=O` [Compound 33]: the “Transport of total MPA derivatives in lymph (% of dose)” value in data set [1] (setting [4]) is on record as 10.5 ± 0.7 % of dose. In data set [1] (setting [5]), the “Fold increase (compared with MPA dosed group)” value was determined as 62.8 fold.

As to `CCCCCCCCCCCCCCCC(=O)OCC(COC(=O)CCCCCCCCCCCCCCC)OC(=O)CCCCCCCCCCCCCCOC(=O)CC/C(C)=C/Cc1c(O)c2c(c(C)c1OC)COC2=O` [Compound 34], the “Transport of total MPA derivatives in lymph (% of dose)” value was 22.1 % of dose and 22.1 ± 3.5 % of dose in data set [1] (setting [4]); 22.1 % of dose in data set [1] (anaesthetised, mesenteric lymph-duct cannulated male SD rats, intraduodenal infusion 0-2 h, cumulative over 8 h, listed as compound 34). Also, in data set [1] (setting [5]), the “Fold increase (compared with MPA dosed group)” value is reported as 132.0 fold.

Consider `CCCCCCCCCCCCCCCC(=O)OCC(COC(=O)CCCCCCCCCCCCCCC)OC(=O)CCCCCCCCCCCCCCCCCCCCOC(=O)CC/C(C)=C/Cc1c(O)c2c(c(C)c1OC)COC2=O` [Compound 35], for which the “Transport of total MPA derivatives in lymph (% of dose)” value in data set [1] (setting [4]) is recorded as 9.7 ± 1.0 % of dose. Moreover, the “Fold increase (compared with MPA dosed group)” value in data set [1] (setting [5]) is 58.1 fold.

Consider `CCCCCCCCCCCCCCCC(=O)OCC(COC(=O)CCCCCCCCCCCCCCC)OC(=O)CCCCSC(=O)CC/C(C)=C/Cc1c(O)c2c(c(C)c1OC)COC2=O` [Compound 40], for which the “Transport of total MPA derivatives in lymph (% of dose)” value in data set [1] (setting [4]) is 10.2 ± 3.0 % of dose. Also, the “Fold increase (compared with MPA dosed group)” value in data set [1] (setting [5]) stood at 61.1 fold.

As to `COCCc1ccc(OCC(O)CNC(C)C)cc1` (stereo not shown) [MET, metoprolol, reference compound], in data set [1] (setting [6]), the “Increase fold” value is given as 1.0 fold and the “Transport of total drug derivatives in lymph (% of dose)” value was 0.02 ± 0.01 % of dose.

As to `COc1c(C)c2c(c(O)c1C/C=C(\C)CCC(=O)O)C(=O)OC2` [MPA, mycophenolic acid, reference compound], in data set [1] (setting [6]), the “Fold increase (compared with MPA dosed group)” value came out at 1.0 fold and the “Transport of total MPA derivatives in lymph (% of dose)” value was 0.17 ± 0.05 % of dose.

Regarding `CN[C@H]1CC[C@@H](c2ccc(Cl)c(Cl)c2)c2ccccc21` [SER, sertraline, reference compound], in data set [1] (setting [6]), the “Increase fold” value came to 1.0 fold and the “Transport of total drug derivatives in lymph (% of dose)” value is on record as 0.05 % of dose.
